Measured values reported in patent US4740501A (priority 1985, dated 1988).

Key:
L1210/L-PAM leukemia = experiment: cells; format: cell-based, mice
[1] = test system: MJY-alpha mammary tumor cell layers; experiment: Tumor cell survival (trypan blue), continuous exposure; format: cell-based, Mouse; settings: for Percent Tumor Cell Survival / % tumor cell survival / reduction of tumor cell survival: MJY-alpha; for Percent Tumor Cell Survival: treated 24 hr; for reduction of tumor cell survival: 10 microgram/ml
MMTV = format: cell-based, mouse
[2] = test system: MJY-alpha mammary tumor cells; experiment: Bioassay of tumorigenicity of in vitro treated tumor cells in syngeneic hosts; format: in vivo, BALB/c mice; settings: for MEAN SURVIVAL TIME (MST) of recipients: control 42
Source text: Suspensions of untreated and tripeptide treated MJY-alpha mammary tumor, B-16 melanoma, and L-1210 leukemia cells were adjusted to a concentration of 1×10^7 cells/ml based on the initial tumor cell concentration before the tripeptide exposure. Tumor cells were inoculated into syngeneic hosts at a concentration of 1×10^6 cells in […]. Female BALB/c/Crgl recipients of MJY-alpha mammary tumor cells and male C57BL/6/Jx hosts receiving B16 melanoma cells were inoculated subcutaneously; BDf1 mice were given intraperitoneal injections of L-1210 cells. Subcutaneous tumors were measured along their long and short axes every 1 to 3 days; tumor size is reported as the product of the two measurements (mm^2). The examination periods for mice receiving L-1210, MJY-alpha and B-16 tumor grafts were 45, 80, and 85 days, respectively. All mice were autopsied at the time of death or sacrifice.

L-1210 leukemia cells = experiment: Tumor cell survival after pulse treatment; format: cell-based, Mouse; settings: for Percent Tumor Cell Survival: viability 24 hr later
Experimental: All rabbit, marmoset and human lymphoid in vitro cell lines, murine L-1210 leukemia and primary human leukemias were treated at cell concentrations of 6-10×10^5 cells/ml. The tripeptide was added to the cell suspensions to yield final concentrations of 1 to 50 ug/ml. Cultures were treated at 37° C. for periods ranging between 15 min to 24 hr. Following treatment, aliquots were removed and centrifuged at 800 rpm for 9 min, at 5° C. Treatment media were gently aspirated and the lymphoid cells resuspended in fresh growth media and reincubated at 37° C. Culture media were changed daily by gently pelleting the cells and exchanging 60-70% of the spent supernatant with fresh media.
Survival of tumor cell layers or suspensions was ascertained using 0.5% trypan blue in 0.1M phosphate-buffered saline, pH 7.25. Cell layers were released from the Multidish-4 wells with 0.5 ml STV, diluted 2 to 10 fold with the vital strain; tumor cells in suspension cultures were directly mixed 1:1 with the trypan blue dye. Tumor cells were enumerated using a haemocytometer; all 10 fields were counted for every sample. Percent viable cells was determined by direct comparison of the numbers of cells excluding trypan blue in treated cultures to those in untreated or diluent-treated parallel cultures. There were no significant differences in the viability of cells treated with diluent when compared to untreated cells.
To delineate the minimum concentration and duration of the tripeptide compound exposure to induce cytolysis, MJY-alpha and B-16 melanoma cell layers and L-1210 leukemia cell suspensions were exposed to 0.5 to 50 ug of the tripeptide compound per ml of solvent for 0.25 to 4 hours. The tripeptide compound was then removed and the cells washed and reincubated in media growth. Tumor cell viability was determined 24 hrs after pulse tripeptide compound exposure. Cell survival of all three tumor cell lines was reduced by an exposure period of as short as 15 min (Table 4). The degree of cytolysis increased with extension of the treatment periods from 15 min to 4 hrs, although the decreases in cell survival were not proportional to the duration of the exposure. […] Comparison of the data in Tables 2 and 4 reveal that cells exposed to the tripeptide compound for one hour were irreversibly damaged when assayed a day later despite their apparent viability immediately after treatment.
The reversibility of the cancericidal activity of the tripeptide compounds on L-1210 leukemia, MJY-alpha mammary tumor and B-16 melanoma cells was also monitored in the nonhostile tissue culture environment. Cell suspensions of these tumor models were treated with tripeptide for 15 to 240 min, washed and either inoculated into mice or maintained as suspension (L-1210) or monolayer cultures (MJY-alpha and B-16). Reductions in tumor cells survival were negligible (0-6%) in all three tumor systems at initiation of in vitro cultures following treatment with 50 ug tripeptide/ml for as long as 4 hrs. However, significant decreases in cellular viabilities of L-1210 leukemia (FIG. 9), MJY-alpha mammary tumor (FIG. 10) and B-16 melanoma (FIG. 11) tumor cells were observed 24 hr following tripeptide exposure and for the next 6 days.

CCOC(=O)[C@H](CCSC)NC(=O)[C@H](Cc1cccc(N(CCCl)CCCl)c1)NC(=O)[C@@H](N)Cc1ccc(F)cc1.Cl [PTT.119, 3-(p-fluorophenyl)-L-alanyl-3-[m-bis(2-chloroethyl)aminophenyl]-L-alanyl-L-methionine ethyl ester hydrochloride]
T.C.D.100 (L1210/L-PAM leukemia): 30.0 | surviving fraction at end of examination period (L1210/L-PAM leukemia): 0.8-3% | percentage of viable cells (L1210/L-PAM leukemia; 3.75 µM): 40-50% | IC50 (L1210/L-PAM leukemia; Mus musculus, L1210/LPAM, 24 h, read-out: T.C.D.50): 3 µM | Percent Tumor Cell Survival ([1]; 1 ug/ml): 54% | % tumor cell survival ([1]; 5 ug/ml, 1 hr): 100% | % tumor cell survival ([1]; 5 ug/ml, 4 hr): 100% | % tumor cell survival ([1]; 5 ug/ml, 8 hr): 100% | % tumor cell survival ([1]; 5 ug/ml, 24 hr): 53% | Percent Tumor Cell Survival ([1]; 5 ug/ml): 41% | % tumor cell survival ([1]; 10 ug/ml, 1 hr): 100% | % tumor cell survival ([1]; 10 ug/ml, 4 hr): 100% | % tumor cell survival ([1]; 10 ug/ml, 8 hr): 100% | % tumor cell survival ([1]; 10 ug/ml, 24 hr): 53% | Percent Tumor Cell Survival ([1]; 10 ug/ml): 36% | % tumor cell survival ([1]; 25 ug/ml, 1 hr): 100% | % tumor cell survival ([1]; 25 ug/ml, 4 hr): 100% | % tumor cell survival ([1]; 25 ug/ml, 8 hr): 98% | % tumor cell survival ([1]; 25 ug/ml, 24 hr): 25% | Percent Tumor Cell Survival ([1]; 25 ug/ml): 27% | % tumor cell survival ([1]; 50 ug/ml, 1 hr): 98% | % tumor cell survival ([1]; 50 ug/ml, 4 hr): 87% | % tumor cell survival ([1]; 50 ug/ml, 8 hr): 62% | % tumor cell survival ([1]; 50 ug/ml, 24 hr): 19% | Percent Tumor Cell Survival ([1]; 50 ug/ml): 20% | reduction of tumor cell survival ([1]; another 24 hours): 25% | reduction of tumor cell survival ([1]; zero to 24 hours): 8% | decrease in mammary tumor cell survival ([1]; continuous 24 hr exposure, all concentrations tested (0.1 to 50 ug/ml)): 46-80% | less MMTV produced compared to controls (labeled uridine) (MMTV): 37% | reduction of MMTV replication (MMTV): 27% | reduction of viral replication (labeled uridine) (MMTV): 42% | tumor growth in recipients ([2]; 10^6 MJY-alpha cells treated with 25 ug or higher for 30 to 240 min): complete absence of tumor growth | MEAN SURVIVAL TIME (MST) of recipients ([2]; MJY-alpha, 5 ug/ml, 60 min): 52 days | MEAN SURVIVAL TIME (MST) of recipients ([2]; MJY-alpha, 5 ug/ml, 120 min): 43 days | MEAN SURVIVAL TIME (MST) of recipients ([2]; MJY-alpha, 10 ug/ml, 30 min): 44 days | MEAN SURVIVAL TIME (MST) of recipients ([2]; MJY-alpha, 10 ug/ml, 60 min): 46 days | MEAN SURVIVAL TIME (MST) of recipients ([2]; MJY-alpha, 10 ug/ml, 120 min): 61 days | MEAN SURVIVAL TIME (MST) of recipients ([2]; MJY-alpha, 25 ug/ml, 30 min): 56 days | initial lag period between inoculation and appearance of palpable tumors ([2]; MJY-alpha, increasing dosages, 2 hr treatment): lengthened | reduction of viable tumor cell population ([2]; MJY-alpha, inferred from LD100 of 100 viable cells): at least 99.9% | tumor growth rates of untreated and treated cells ([2]; MJY-alpha, once graft established): identical | Percent Tumor Cell Survival (L-1210 leukemia cells; L-1210, 1 ug/ml, pulse 1 hr): 83% | Percent Tumor Cell Survival (L-1210 leukemia cells; L-1210, 1 ug/ml, pulse 2 hr): 78% | Percent Tumor Cell Survival (L-1210 leukemia cells; L-1210, 1 ug/ml, pulse 4 hr): 45% | Percent Tumor Cell Survival (L-1210 leukemia cells; L-1210, 1 ug/ml, pulse .25 hr): 80% | Percent Tumor Cell Survival (L-1210 leukemia cells; L-1210, 1 ug/ml, pulse .5 hr): 87% | Percent Tumor Cell Survival (L-1210 leukemia cells; L-1210, 5 ug/ml, pulse 1 hr): 61% | Percent Tumor Cell Survival (L-1210 leukemia cells; L-1210, 5 ug/ml, pulse 2 hr): 57% | Percent Tumor Cell Survival (L-1210 leukemia cells; L-1210, 5 ug/ml, pulse 4 hr): 35% | Percent Tumor Cell Survival (L-1210 leukemia cells; L-1210, 5 ug/ml, pulse .25 hr): 72% | Percent Tumor Cell Survival (L-1210 leukemia cells; L-1210, 5 ug/ml, pulse .5 hr): 60% | Percent Tumor Cell Survival (L-1210 leukemia cells; L-1210, 10 ug/ml, pulse 1 hr): 27% | Percent Tumor Cell Survival (L-1210 leukemia cells; L-1210, 10 ug/ml, pulse 2 hr): 31% | Percent Tumor Cell Survival (L-1210 leukemia cells; L-1210, 10 ug/ml, pulse 4 hr): 37% | Percent Tumor Cell Survival (L-1210 leukemia cells; L-1210, 10 ug/ml, pulse .25 hr): 53% | Percent Tumor Cell Survival (L-1210 leukemia cells; L-1210, 10 ug/ml, pulse .5 hr): 40% | Percent Tumor Cell Survival (L-1210 leukemia cells; L-1210, 20 ug/ml, pulse 1 hr): 0% | Percent Tumor Cell Survival (L-1210 leukemia cells; L-1210, 20 ug/ml, pulse .25 hr): 0% | Percent Tumor Cell Survival (L-1210 leukemia cells; L-1210, 20 ug/ml, pulse .5 hr): 0% | Percent Tumor Cell Survival (L-1210 leukemia cells; L-1210, 25 ug/ml, pulse 1 hr): 0% | Percent Tumor Cell Survival (L-1210 leukemia cells; L-1210, 25 ug/ml, pulse 2 hr): 0% | Percent Tumor Cell Survival (L-1210 leukemia cells; L-1210, 25 ug/ml, pulse 4 hr): 0% | Percent Tumor Cell Survival (L-1210 leukemia cells; L-1210, 25 ug/ml, pulse .25 hr): 20% | Percent Tumor Cell Survival (L-1210 leukemia cells; L-1210, 25 ug/ml, pulse .5 hr): 7% | reductions in tumor cell survival at initiation of in vitro cultures (L-1210 leukemia cells; L-1210, 50 ug/ml for as long as 4 hrs (all three tumor systems)): 0-6% | Percent Tumor Cell Survival (L-1210 leukemia cells; L-1210, .5 ug/ml, pulse 1 hr): 83% | Percent Tumor Cell Survival (L-1210 leukemia cells; L-1210, .5 ug/ml, pulse 2 hr): 94% | Percent Tumor Cell Survival (L-1210 leukemia cells; L-1210, .5 ug/ml, pulse 4 hr): 68% | Percent Tumor Cell Survival (L-1210 leukemia cells; L-1210, .5 ug/ml, pulse .25 hr): 95% | Percent Tumor Cell Survival (L-1210 leukemia cells; L-1210, .5 ug/ml, pulse .5 hr): 90% | L-1210 cells destroyed compared to mammary tumor and melanoma cells (L-1210 leukemia cells; any given concentration, 30 min or 1 hr pulse, 5 days): approximately 5 times
